Assay results taken from ChEMBL document CHEMBL5584239, “Discovery of novel quinoline scaffold selective estrogen receptor degraders (SERDs) for treatment of ER positive breast cancer with enhanced antiproliferative bioactivity through immunogenic cell death (ICD) effects” (Eur J Med Chem, 2024).
The source made the active and inactive calls. The rule behind the calls is not given here.

Experiments:
[1] = test system: MCF7; assay: Antiproliferative activity against human MCF7 cells incubated for 5 days by MTT assay; format: functional, cell-based; settings: MCF7, 120 h
[2] = biological target: T1, Estrogen receptor (Homo sapiens) (UniProt P03372); assay: Induction of estrogen receptor degradation in human MCF7 cells incubated for 24 hrs by Western blot analysis; format: cell-based; settings: dose 0.001-10 µM
T1 sequence (whole entry): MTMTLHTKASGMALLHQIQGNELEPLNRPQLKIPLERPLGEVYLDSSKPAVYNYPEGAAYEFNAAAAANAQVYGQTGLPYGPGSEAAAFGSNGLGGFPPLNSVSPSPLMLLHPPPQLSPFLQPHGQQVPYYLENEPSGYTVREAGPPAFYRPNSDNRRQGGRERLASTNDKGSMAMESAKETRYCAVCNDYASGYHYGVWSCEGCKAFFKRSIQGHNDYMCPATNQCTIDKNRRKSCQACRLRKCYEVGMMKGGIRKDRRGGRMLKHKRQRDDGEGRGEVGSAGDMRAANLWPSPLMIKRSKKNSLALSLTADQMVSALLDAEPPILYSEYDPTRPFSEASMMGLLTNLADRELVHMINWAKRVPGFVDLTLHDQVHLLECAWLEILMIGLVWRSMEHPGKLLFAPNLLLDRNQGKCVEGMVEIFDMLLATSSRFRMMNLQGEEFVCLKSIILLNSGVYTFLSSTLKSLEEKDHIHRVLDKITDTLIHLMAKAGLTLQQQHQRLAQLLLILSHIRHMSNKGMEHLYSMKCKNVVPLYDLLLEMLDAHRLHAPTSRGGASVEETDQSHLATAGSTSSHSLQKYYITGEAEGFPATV

[3] = biological target: T1, Estrogen receptor (Homo sapiens); assay: Induction of estrogen receptor degradation in MG-132-treated human MCF7 cells at 10 uM incubated for 4 to 6 hrs by Western blot analysis; format: cell-based; settings: time 4-6 hrs
[4] = biological target: T1, Estrogen receptor (Homo sapiens); assay: Induction of estrogen receptor degradation in human MCF7 cells at 10 uM by fluorescence microscopy; format: cell-based
[5] = biological target: T1, Estrogen receptor (Homo sapiens); assay: Induction of estrogen receptor degradation in estradiol-stimulated human MCF7 cells assessed as decrease in PGR mRNA level incubated for 24 hrs by RT-qPCR analysis; format: cell-based; settings: dose 1-10 µM
[6] = Half life in rat at 5 mg/kg, iv measured for 1 to 24 hrs by LC-MS analysis; format: ADME, organism-based; settings: in vivo, time 1-24 hrs
[7] = Apparent volume of distribution in rat at 5 mg/kg, iv measured for 1 to 24 hrs by LC-MS analysis; format: ADME, organism-based; settings: in vivo, time 1-24 hrs, read-out: Vz
[8] = MRT (0 to t) in rat at 5 mg/kg, iv measured for 1 to 24 hrs by LC-MS analysis; format: ADME, organism-based; settings: in vivo, time 1-24 hrs
[9] = MRT (0 to infinity) in rat at 5 mg/kg, iv measured for 1 to 24 hrs by LC-MS analysis; format: ADME, organism-based; settings: in vivo, time 1-24 hrs
[10] = Half life in rat at 20 mg/kg, po measured for 1 to 24 hrs by LC-MS analysis; format: ADME, organism-based; settings: in vivo, time 1-24 hrs
[11] = AUC (0 to t) in rat at 20 mg/kg, po measured for 1 to 24 hrs by LC-MS analysis; format: ADME, organism-based; settings: in vivo, time 1-24 hrs
[12] = AUC (0 to infinity) in rat at 20 mg/kg, po measured for 1 to 24 hrs by LC-MS analysis; format: ADME, organism-based; settings: in vivo, time 1-24 hrs
[13] = MRT (0 to t) in rat at 20 mg/kg, po measured for 1 to 24 hrs by LC-MS analysis; format: ADME, organism-based; settings: in vivo, time 1-24 hrs
[14] = MRT (0 to infinity) in rat at 20 mg/kg, po measured for 1 to 24 hrs by LC-MS analysis; format: ADME, organism-based; settings: in vivo, time 1-24 hrs
[15] = test system: MCF7; assay: Induction of ROS production in human MCF7 cells incubated for 3 to 24 hrs by immunofluorescence analysis; format: functional, cell-based; settings: time 3-24 hrs
[16] = test system: MCF7; assay: Induction of ROS production in human MCF7 cells measured after 6 to 24 hrs by flow cytometry; format: functional, cell-based; settings: time 6-24 hrs
[17] = test system: MCF7; assay: Induction of endoplasmic reticulum stress effect in human MCF7 cells assessed as change in GRP78 level at 10 uM incubated for 3 to 24 hrs by Western blot analysis; format: functional, cell-based; settings: time 3-24 hrs
[18] = test system: MCF7; assay: Induction of endoplasmic reticulum stress effect in human MCF7 cells assessed as change in pEIF-2alpha level at 10 uM incubated for 3 to 24 hrs by Western blot analysis; format: functional, cell-based; settings: time 3-24 hrs
[19] = test system: MCF7; assay: Induction of endoplasmic reticulum stress effect in human MCF7 cells assessed as change in calnexin level at 10 uM incubated for 24 hrs by immunofluorescence based analysis; format: functional, cell-based
[20] = test system: MCF7; assay: Induction of immunogenic cell death in human MCF7 cells assessed as CRT translocation at 10 uM by fluorescence microscopy; format: functional, cell-based
[21] = test system: MCF7; assay: Induction of immunogenic cell death in human MCF7 cells assessed as HMGB1 release from nucleus at 10 uM by Western blot analysis; format: functional, cell-based
[22] = test system: MCF7; assay: Induction of immunogenic cell death in human MCF7 cells assessed as HMGB1 release from nucleus at 10 uM by fluorescence microscopy; format: functional, cell-based
[23] = test system: MCF7; assay: Induction of immunogenic cell death in human MCF7 cells assessed as ATP release […] at 10 uM; format: functional, cell-based
[24] = Toxicity in nude mouse model xenografted with human MCF7 cells assessed as morphological change in heart at 60 mg/kg, po administered daily via gavage for 30 days by H and E staining based analysis; format: organism-based; settings: in vivo, 720 h, time 30 day
[25] = Toxicity in nude mouse model xenografted with human MCF7 cells assessed as morphological change in liver at 60 mg/kg, po administered daily via gavage for 30 days by H and E staining based analysis; format: organism-based; settings: in vivo, 720 h, time 30 day

CCc1ccccc1C(=O)c1cnc2cc(O)ccc2c1Oc1ccc(/C=C/C(=O)O)cc1
IC50 [1]: 150 nM
Activity [2]: Dose-Dependent Effect
Activity [3]: inactive
Activity [4]: Active
Activity [5]: Dose-Dependent Effect
half-life [6]: 0.863 h
Vd [7]: 2 L/kg
MRT last [8]: 7.2 min
MRT inf [9]: 7.56 min
half-life [10]: 3.18 h
AUC(0-t) [11]: 628 ng·h/mL
AUC(0-inf) [12]: 649 ng·h/mL
MRT last [13]: 2.19 h
MRT inf [14]: 2.66 h
Activity [15]: inactive
Activity [16]: inactive
Activity [17]: Active
Activity [18]: Active
Activity [19]: Active
Activity [20]: Active
Activity [21]: Active
Activity [22]: Active
Activity [23]: Active
Activity [24]: Non-Toxic
Activity [25]: Non-Toxic
